Key:
[1] = system: Na+ channel site 2 binding site; assay: [3H]-BTX assay, rat forebrain membranes; settings: ± S.E.M., n in brackets
Experimental: In order to determine if the hermitamides bind to the sodium channel, the natural products, their enantiomers, and the racemic mixture were tested for their ability to displace [^3H]-batrachatoxin. Batrachatoxin is a lipid-soluble neurotoxin that binds to site 2 of the sodium channel. This site is known to overlap with the local anesthetic binding […]. Ligands known to bind to […] of the sodium channel include anesthetics, anticonvulsants and antiarrthymics. As a control, phenyloin, a clinically-used sodium channel blocker that is known to displace [^3H]BTX was also included.
The assays were run at 10 μM and recorded as percent displacement of BTX.
Briefly, rat forebrain membranes (10 mg tissue/well) were incubated with [^3H]-BTX (30-60 Ci/mmol). […] The reaction was terminated by rapid vacuum filtration of the reaction contents onto glass fiber filters. Radioactivity trapped onto the filters was determined and compared with control values to ascertain any interactions of the test compound with the Na^+ channel site 2 binding site. Aconitine (1 μM) was used as a positive control (Sigma Aldrich, Inc., St. Louis, Mo.).

[2] = biological target: T1, human Nav1.2 (Homo sapiens, UniProt Q99250); assay: Sodium channel electrophysiology of hermitamides (patch clamp); type: cell-based; settings: HEK human Nav1.2
T1 construct: host or cells: HEK
T1 sequence (Q99250 whole entry): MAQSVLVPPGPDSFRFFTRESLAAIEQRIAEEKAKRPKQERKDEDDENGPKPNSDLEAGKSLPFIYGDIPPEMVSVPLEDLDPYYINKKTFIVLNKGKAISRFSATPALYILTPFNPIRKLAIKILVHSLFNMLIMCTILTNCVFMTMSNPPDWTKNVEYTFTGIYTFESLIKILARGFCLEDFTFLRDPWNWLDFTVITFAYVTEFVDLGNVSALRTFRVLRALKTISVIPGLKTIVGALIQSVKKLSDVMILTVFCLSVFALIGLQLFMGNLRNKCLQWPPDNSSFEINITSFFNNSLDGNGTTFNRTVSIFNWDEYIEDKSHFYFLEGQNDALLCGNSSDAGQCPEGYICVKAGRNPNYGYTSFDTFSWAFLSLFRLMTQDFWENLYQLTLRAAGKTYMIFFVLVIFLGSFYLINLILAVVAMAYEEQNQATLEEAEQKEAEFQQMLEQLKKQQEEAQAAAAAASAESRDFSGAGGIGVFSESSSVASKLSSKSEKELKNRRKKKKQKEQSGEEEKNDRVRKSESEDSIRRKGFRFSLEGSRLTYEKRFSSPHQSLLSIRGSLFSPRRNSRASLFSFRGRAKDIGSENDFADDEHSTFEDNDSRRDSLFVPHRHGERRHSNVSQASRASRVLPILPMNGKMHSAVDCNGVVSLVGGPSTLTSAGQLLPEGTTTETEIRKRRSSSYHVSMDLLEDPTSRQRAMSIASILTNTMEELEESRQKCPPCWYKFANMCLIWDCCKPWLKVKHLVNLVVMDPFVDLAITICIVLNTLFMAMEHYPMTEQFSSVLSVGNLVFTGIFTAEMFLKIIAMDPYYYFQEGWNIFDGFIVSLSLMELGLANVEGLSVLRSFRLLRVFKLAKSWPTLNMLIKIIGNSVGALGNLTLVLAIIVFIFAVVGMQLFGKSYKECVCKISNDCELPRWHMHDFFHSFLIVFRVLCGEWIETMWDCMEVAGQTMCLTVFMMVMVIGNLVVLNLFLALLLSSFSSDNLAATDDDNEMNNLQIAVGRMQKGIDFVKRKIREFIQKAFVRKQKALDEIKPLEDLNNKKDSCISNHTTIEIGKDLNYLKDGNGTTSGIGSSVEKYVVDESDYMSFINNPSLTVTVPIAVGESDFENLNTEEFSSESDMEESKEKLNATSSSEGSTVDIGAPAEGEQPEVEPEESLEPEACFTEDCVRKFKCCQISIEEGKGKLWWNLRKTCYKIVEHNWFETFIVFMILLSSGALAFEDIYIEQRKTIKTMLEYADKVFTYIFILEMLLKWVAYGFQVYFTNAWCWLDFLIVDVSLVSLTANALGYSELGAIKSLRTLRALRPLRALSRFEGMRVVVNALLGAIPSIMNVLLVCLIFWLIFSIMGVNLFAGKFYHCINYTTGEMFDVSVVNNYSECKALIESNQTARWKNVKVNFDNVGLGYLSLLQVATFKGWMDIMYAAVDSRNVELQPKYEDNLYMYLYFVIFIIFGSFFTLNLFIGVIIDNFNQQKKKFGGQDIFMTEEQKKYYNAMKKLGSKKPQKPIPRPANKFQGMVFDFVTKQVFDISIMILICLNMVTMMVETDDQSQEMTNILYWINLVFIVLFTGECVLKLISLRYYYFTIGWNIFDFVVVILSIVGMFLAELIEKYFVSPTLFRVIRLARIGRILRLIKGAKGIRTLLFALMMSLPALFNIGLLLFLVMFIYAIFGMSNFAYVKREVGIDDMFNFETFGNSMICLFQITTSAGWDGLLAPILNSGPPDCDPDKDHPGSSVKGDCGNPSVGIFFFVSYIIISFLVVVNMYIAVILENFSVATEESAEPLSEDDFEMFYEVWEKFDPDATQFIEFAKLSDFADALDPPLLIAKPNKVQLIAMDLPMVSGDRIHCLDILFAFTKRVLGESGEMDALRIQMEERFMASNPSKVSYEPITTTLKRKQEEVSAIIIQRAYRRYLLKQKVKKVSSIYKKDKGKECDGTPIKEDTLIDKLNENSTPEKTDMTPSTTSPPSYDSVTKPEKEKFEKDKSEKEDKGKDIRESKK
Experimental: To test whether these compounds were functionally active as sodium channel blockers, the effects of the hermitamides were tested on human embryonic kidney cells (HEK) cells stably expressing human Nav1.2 using the […].
Human embryonic kidney cells (HEK) cells stably expressing human Nav1.2 were a kind gift from Dr. H. A. Hartmann (University of Baltimore, Md., USA) and were grown in DMEM/F12 media (Invitrogen, Corp, CA, USA) supplemented with 10% fetal bovine serum, penicillin (100 U/ml), streptomycin (100 μg/ml) and G418 (500 μg/ml; Sigma, Mo., USA). Cells were grown in a humidified atmosphere of 5% CO2 and 95% air at 37° C.
Sodium currents were recorded using the whole-cell configuration of the patch clamp recording technique with an Axopatch 200 amplifier (Axon Instruments, Foster City, Calif.). All voltage protocols were applied using pCLAMP 9 software (Axon, USA) and a Digidata 1322A (Axon, USA). Currents were amplified and low pass filtered (2 kHz) and sampled at 33 kHz. Borosilicate glass pipettes were pulled using a Brown-Flaming puller (model P87, Sutter Instruments Co, Novato, Calif.) and heat polished to produce electrode resistances of […] when filled with the following electrode solution (in mM); CsCl 130, MgCl2 1, MgATP 5, BAPTA 10, HEPES 5 (pH adjusted to 7.4 with CsOH). Cells were plated on glass coverslips and superfused with solution containing the following composition; (in mM) NaCl 130, KCl 4, CaCl2 1, MgCl2 5, HEPES 5, and glucose 5 (pH adjusted to 7.4 with NaOH).
(S)-Hermitamide B was prepared as 100 mM stock solutions in DMSO and diluted to the desired concentration in perfusion solution. The maximum DMSO concentration used was 0.1% and had no effect on current amplitude. All experiments were performed at room temperature (20-22° C.). After establishing whole-cell, a minimum series resistance compensation of 75% was applied. Sodium currents were elicited by a depolarizing step from a holding potential of −100 mV to +10 mV for a duration of 25 ms at 15 s intervals. (S)-Hermitamide B was applied after a 3 min control period and continued until a steady state current amplitude was observed. All data represent percentage mean block±standard error of the mean (S.E.M.).

[3] = system: CWR22rv-1 cells; assay: CWR22rv-1 prostate cancer cell death (propidium iodide, FACS); type: cell-based, human; settings: 25 μM, after 24 h
Experimental: CWR22Rv1 cells (ATCC, Manassas, Va.) were seeded in 6 well tissue culture plate at density of 300,000 cells/well and maintained in RPMI 1640 (Mediatech, Herndon, Va.) containing 10% fetal bovine serum, 2.5 mM L-glutamine, and penicillin-streptomycin (100 IU/ml and 100 μg/ml, respectively) at 37° C. with 5% CO2. Cells were then switched to serum free RPMI media overnight prior to drug treatment. Compounds were dissolved in 100% dimethylsulfoxide (DMSO) and diluted to the desired concentrations in serum free RPMI. Cells were treated with indicated drug concentrations (in triplicate per treatment point) for 24, 48, 72 hour. After treatment, cells were harvested by trypsinization and fixed in 70% ethanol. The fixed cells were then stained with propidium iodide (50 μg/ml) after treatment with RNase (5 μg/ml). The stained cells were analyzed for DNA content using FACSsort (Becton Dickinson). Cell cycle fractions were quantified with Cell Quest (Becton Dickinson) or ModFit LT (Verity Software House).

[4] = system: site 2 of the VGSC; assay: [3H]-BTX-B displacement assay at site 2; type: binding, rat; settings: Screen at 40 μM, 2 replicates, referenced to Aconitine

Row | SMILES | % [3H]-BTX Displacement At 10 μM [1] | Patch-clamp percentage block, 1 μM [2] | Patch-clamp percentage block, 10 μM [2] | [3H]-BTX-B Binding Data, Displacement % [4] | other results
1 | CCCCCCC[C@@H](C/C=C/CCC(=O)NCCc1ccccc1)OC (racemic) [rac-hermitamide A] | 15.71 ± 0.14 (2) % | 49.7 ± 3.8 (4) % | 90.2 ± 2.5 (3) % | – | –
2 | CCCCCCC[C@@H](C/C=C/CCC(=O)NCCc1c[nH]c2ccccc12)OC (racemic) [rac-hermitamide B] | 36.05 ± 0.77 (2) % | 88.4 ± 2.9 (40% | 100 (1) % | – | Patch-clamp percentage block, 100 nM [2]: 24.3%
3 | CCCCCCCC(C/C=C/CCC(=O)O)OC (racemic) [rac-lyngbic acid] | 7.35 ± 2.88 (2) % | – | – | – | Patch-clamp percentage block, 100 μM ([2]; 100 μM): 55.6%
4 | CCCCCCC[C@](O)(C(N)=O)c1cccc(Cl)c1 [(R)-(−)-2-(3-chloro-phenyl)-2-hydroxy-nonanoic acid amide] | – | – | – | – | cell death of CWR22rv-1 cells [3]: induces cell death
5 | CCCCCCC[C@H](C/C=C/CCC(=O)NCCc1ccccc1)OC [(R)-hermitamide A, Phenethyl (7R,4E)-methoxytetradecenamide] | 13.79 ± 1.28 (2) % | 58.7 ± 1.3 (4) % | – | – | –
6 | CCCCCCC[C@H](C/C=C/CCC(=O)NCCc1c[nH]c2ccccc12)OC [(R)-hermitamide B, 2-(1H-indol-3-yl)-ethyl (7R,4E)-Methoxytetradecenamide] | 20.31 ± 5.82 (2) % | 93.6 (1) % | – | – | Patch-clamp percentage block, 100 nM [2]: 28.8%
7 | CCCCCCC[C@H](C/C=C/CCC(=O)O)OC [(R)-lyngbic acid, (7R,4E)-Methoxytetradecenoic Acid] | 11.91 ± 0.16 (2) % | 52.5 ± 3.9 (4) % | – | – | Patch-clamp percentage block, 100 nM [2]: 11.9%
8 | CCCCCCC[C@@H](C/C=C/CCC(=O)NCCc1ccccc1)OC [(S)-hermitamide A, Phenethyl (7S,4E)-methoxytetradecenamide] | 15.89 ± 3.06 (2) % | ~50% | 94.4 ± 1.3 (4) % | – | –
9 | CCCCCCC[C@@H](C/C=C/CCC(=O)NCCc1c[nH]c2ccccc12)OC [(S)-hermitamide B, 2-(1H-indol-3-yl)-ethyl (7S,4E)-Methoxytetradecenamide] | 29.02 ± 0.29 (2) % | 80% | 100 (3) % | – | Patch-clamp percentage block, 1 μM ([2]; listed as Hermitamide B): ~80%
10 | CCCCCCC[C@@H](C/C=C/CCC(=O)O)OC [(S)-lyngbic acid, (7S,4E)-Methoxytetradecenoic Acid] | 7.77 ± 2.20 (2) % | – | 44.4 ± 0.3 (4) % | – | –
11 | C#CC(O)(CCCCCCC)c1cccc(Cl)c1 (stereo not drawn) [Compound 12] | – | – | – | 78% | –
12 | C#C/C(=C\CCCCCC)c1cccc(Cl)c1 [Compound 13] | – | – | – | 32% | –
13 | C=CCCCCCC1(c2cccc(Cl)c2)NC(=O)NC1=O (stereo not drawn) [Compound 16] | – | – | – | 79% | –
14 | C=CCCCCCC1(c2cccc(Cl)c2)NC(=O)N(Cc2ccccc2)C1=O (stereo not drawn) [Compound 17] | – | – | – | 23% | –
15 | O=C1NC(=O)C(CCCCCC2CO2)(c2cccc(Cl)c2)N1 (stereo not drawn) [Compound 18] | – | – | – | 28% | –
16 | O=C1NC(=O)C(CCCCCC2CC2)(c2cccc(Cl)c2)N1 (stereo not drawn) [Compound 20] | – | – | – | 8% | –
